Data published in PubChem BioAssay AID256 (DTP/NCI, 2004).
“And” between values parts separate entries of the source, which are not always exact repeats. Identical values can stand only once. Toxic doses and inconclusive results are not listed.

Tested on: CD2F1 mice, L1210 leukemia ip, survival T/C
Assay: NCI In Vivo Anticancer Drug Screen. Data for tumor model L1210 Leukemia (intraperitoneal) in CD2F1 (CDF1) mice
Settings: higher = longer survival
Procedure, shortened: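 In this screen, transplantable tumors were grown in mice given either the compound or its vehicle. Results were expressed as the treated measurement relative to the control measurement.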

[1] = endpoint: mean survival time, dose: 100.0 mg/kg/injection, schedule: Q01DX001 (ip), vehicle: saline with Tween-80
[2] = endpoint: mean survival time, dose: 200.0 mg/kg/injection, schedule: Q01DX001 (ip), vehicle: saline with Tween-80
[3] = endpoint: mean survival time, dose: 400.0 mg/kg/injection, schedule: Q01DX001 (ip), vehicle: saline with Tween-80

SMILES: CCOc1ccc(-n2c(=O)c(N=Nc3ccccc3OC)c(O)n(-c3ccc(C)cc3)c2=S)cc1
- T/C [1]: 98 % of control
- T/C [2]: 101 % of control
- T/C [3]: 97 % of control

SMILES: [O-][n+]1ccc(-c2ccccc2)nc1
- T/C (endpoint: mean survival time, dose: 50.0 mg/kg/injection, schedule: Q04DX002 (ip), vehicle: saline with Tween-80): 106 % of control
- T/C (endpoint: mean survival time, dose: 100.0 mg/kg/injection, schedule: Q04DX002 (ip), vehicle: saline with Tween-80): 103 % of control
- T/C (endpoint: mean survival time, dose: 200.0 mg/kg/injection, schedule: Q04DX002 (ip), vehicle: saline with Tween-80): 117 % of control

SMILES: Nc1nc(N)c2nc(CSc3ccc(C(=O)NC(CCC(=O)O)C(=O)O)cc3)ccc2n1 (stereo not given)
- T/C (endpoint: mean survival time, dose: 0.5 mg/kg/injection, schedule: Q01DX005 (ip), vehicle: sodium bicarbonate): 121 % of control
- T/C (endpoint: mean survival time, dose: 2.0 mg/kg/injection, schedule: Q01DX005 (ip), vehicle: sodium bicarbonate): 154 % of control

SMILES: CCCCN(CCCC)CCCC
- T/C (endpoint: mean survival time, dose: 100.0 mg/kg/injection, schedule: Q01DX001 (ip), vehicle: saline): 93 % of control

SMILES: CSc1nc(SC)c2c3c(N)ncnc3n(C3OC(CO)C(O)C3O)c2n1 (stereo not given)
- T/C (endpoint: mean survival time, dose: 12.5 mg/kg/injection, schedule: Q01DX005 (ip), vehicle: other): 107 % of control
- T/C (endpoint: mean survival time, dose: 25.0 mg/kg/injection, schedule: Q01DX005 (ip), vehicle: other): 121 % of control
- T/C (endpoint: mean survival time, dose: 100.0 mg/kg/injection, schedule: Q01DX005 (ip), vehicle: other): 119 % of control
- T/C (endpoint: mean survival time, dose: 250.0 mg/kg/injection, schedule: Q01DX005 (ip), vehicle: other): 121 % of control

SMILES: Nc1ccccc1CCCC(N)C(=O)O (stereo not given)
- T/C [1]: 97 % of control
- T/C [2]: 100 % of control
- T/C [3]: 93 % of control

SMILES: Cc1ccc([PH+](c2ccc(C)cc2)c2ccc(C)cc2)cc1.Cc1ccc([PH+](c2ccc(C)cc2)c2ccc(C)cc2)cc1.[Cl][Hg][Cl]
- T/C (endpoint: mean survival time, dose: 50.0 mg/kg/injection, schedule: Q01DX009 (ip), vehicle: saline): 103 % of control
- T/C (endpoint: mean survival time, dose: 100.0 mg/kg/injection, schedule: Q01DX009 (ip), vehicle: saline): 95 % of control
- T/C (endpoint: mean survival time, dose: 200.0 mg/kg/injection, schedule: Q01DX009 (ip), vehicle: saline): 91 % of control

SMILES: CN(C)C1C(=O)C(C(=O)NP(=O)(NCCCO)N(CCCl)CCCl)=C(O)C2(O)C(=O)C3=C(O)c4c(O)cccc4C(C)(O)C3CC12 (stereo not given)
- T/C (endpoint: mean survival time, dose: 1.56 mg/kg/injection, schedule: Q01DX001 (ip), vehicle: saline with Tween-80): 102 % of control
- T/C (endpoint: mean survival time, dose: 3.12 mg/kg/injection, schedule: Q01DX001 (ip), vehicle: saline with Tween-80): 96 % of control
- T/C (endpoint: mean survival time, dose: 15.62 mg/kg/injection, schedule: Q01DX001 (ip), vehicle: saline with Tween-80): 104 % of control
- T/C (endpoint: mean survival time, dose: 31.25 mg/kg/injection, schedule: Q01DX001 (ip), vehicle: saline with Tween-80): 100 % of control
- T/C (endpoint: mean survival time, dose: 62.5 mg/kg/injection, schedule: Q01DX001 (ip), vehicle: saline with Tween-80): 100 % of control and 106 % of control
- T/C (endpoint: mean survival time, dose: 125.0 mg/kg/injection, schedule: Q01DX001 (ip), vehicle: saline with Tween-80): 124 % of control and 100 % of control
- T/C (endpoint: mean survival time, dose: 250.0 mg/kg/injection, schedule: Q01DX001 (ip), vehicle: saline with Tween-80): 122 % of control and 110 % of control
- T/C (endpoint: mean survival time, dose: 500.0 mg/kg/injection, schedule: Q01DX001 (ip), vehicle: saline with Tween-80): 156 % of control
- T/C (endpoint: median survival time, dose: 25.0 mg/kg/injection, schedule: Q01DX009 (ip), vehicle: saline with Tween-80): 110 % of control
- T/C (endpoint: median survival time, dose: 50.0 mg/kg/injection, schedule: Q01DX009 (ip), vehicle: saline with Tween-80): 118 % of control
- T/C (endpoint: median survival time, dose: 100.0 mg/kg/injection, schedule: Q01DX009 (ip), vehicle: saline with Tween-80): 157 % of control
- T/C (endpoint: median survival time, dose: 200.0 mg/kg/injection, schedule: Q01DX009 (ip), vehicle: saline with Tween-80): 201 % of control and 202 % of control
- T/C (endpoint: median survival time, dose: 400.0 mg/kg/injection, schedule: Q01DX009 (ip), vehicle: saline with Tween-80): 116 % of control

SMILES: OC1C2CC3C1C3C2O (stereo not given)
- T/C (endpoint: mean survival time, dose: 100.0 mg/kg/injection, schedule: Q04DX003 (ip), vehicle: saline with Tween-80): 94 % of control
- T/C (endpoint: mean survival time, dose: 200.0 mg/kg/injection, schedule: Q04DX003 (ip), vehicle: saline with Tween-80): 97 % of control
- T/C (endpoint: mean survival time, dose: 400.0 mg/kg/injection, schedule: Q04DX003 (ip), vehicle: saline with Tween-80): 105 % of control

SMILES: CC(CCOP(N)(=O)N(CCCl)CCCl)OCc1ccccc1 (stereo not given)
- T/C (endpoint: mean survival time, dose: 25.0 mg/kg/injection, schedule: Q01DX001 (ip), vehicle: other): 98 % of control
- T/C (endpoint: mean survival time, dose: 50.0 mg/kg/injection, schedule: Q01DX001 (ip), vehicle: other): 101 % of control
- T/C (endpoint: mean survival time, dose: 100.0 mg/kg/injection, schedule: Q01DX001 (ip), vehicle: other): 106 % of control
- T/C (endpoint: mean survival time, dose: 200.0 mg/kg/injection, schedule: Q01DX001 (ip), vehicle: other): 115 % of control
- T/C (endpoint: mean survival time, dose: 500.0 mg/kg/injection, schedule: Q01DX001 (ip), vehicle: other): 118 % of control
